Reference: PubChem BioAssay AID330 (DTP/NCI, 2004)
“And” between values parts separate entries of the source, which are not always exact repeats. Equal entries are not always repeated. Inconclusive results and toxic doses are left out. Rule for the calls: active = survival T/C of 150% or more; inactive = T/C below 125% in these data.

Tested on: P388 leukemia ip, CD2F1 mice, survival T/C
Test: NCI In Vivo Anticancer Drug Screen. Data for tumor model P388 Leukemia (intraperitoneal) in CD2F1 (CDF1) mice
Settings: endpoint: median survival time, higher = longer survival
Method in brief: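 Mice carrying the transplanted tumor received test compound or vehicle. Survival was recorded in each group, and the value is the treated-group measurement divided by that of the vehicle-treated control group.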

[1] = dose: 15.0 mg/kg/injection, schedule: Q01DX005 (ip), vehicle: saline with Tween-80
[2] = dose: 30.0 mg/kg/injection, schedule: Q01DX005 (ip), vehicle: saline with Tween-80
[3] = dose: 60.0 mg/kg/injection, schedule: Q01DX005 (ip), vehicle: saline with Tween-80
[4] = dose: 100.0 mg/kg/injection, schedule: Q01DX009 (ip), vehicle: saline with Tween-80
[5] = dose: 100.0 mg/kg/injection, schedule: Q04DX003 (ip), vehicle: saline with Tween-80
[6] = dose: 200.0 mg/kg/injection, schedule: Q01DX009 (ip), vehicle: saline with Tween-80
[7] = dose: 200.0 mg/kg/injection, schedule: Q04DX003 (ip), vehicle: saline with Tween-80
[8] = dose: 400.0 mg/kg/injection, schedule: Q01DX009 (ip), vehicle: saline with Tween-80
[9] = dose: 400.0 mg/kg/injection, schedule: Q04DX003 (ip), vehicle: saline with Tween-80
[10] = dose: 120.0 mg/kg/injection, schedule: Q01DX005 (ip), vehicle: saline with Tween-80
[11] = dose: 240.0 mg/kg/injection, schedule: Q01DX005 (ip), vehicle: saline with Tween-80
[12] = dose: 100.0 mg/kg/injection, schedule: Q01DX001 (ip), vehicle: Klucel (hydroxypropylcellulose) (HPC)
[13] = dose: 200.0 mg/kg/injection, schedule: Q01DX001 (ip), vehicle: Klucel (hydroxypropylcellulose) (HPC)
[14] = dose: 400.0 mg/kg/injection, schedule: Q01DX001 (ip), vehicle: Klucel (hydroxypropylcellulose) (HPC)
[15] = dose: 25.0 mg/kg/injection, schedule: Q01DX009 (ip), vehicle: saline with Tween-80
[16] = dose: 60.0 mg/kg/injection, schedule: Q01DX005 (ip), vehicle: Klucel (hydroxypropylcellulose) (HPC)
[17] = dose: 120.0 mg/kg/injection, schedule: Q01DX005 (ip), vehicle: Klucel (hydroxypropylcellulose) (HPC)
[18] = dose: 100.0 mg/kg/injection, schedule: Q01DX009 (ip), vehicle: saline
[19] = dose: 50.0 mg/kg/injection, schedule: Q01DX009 (ip), vehicle: saline with Tween-80

Measured: T/C

NCc1ccccc1Br
inactive: dose: 50.0 mg/kg/injection, schedule: Q01DX005 (ip), vehicle: distilled water + alcohol 101 % of control | dose: 100.0 mg/kg/injection, schedule: Q01DX005 (ip), vehicle: distilled water + alcohol 100 % of control | dose: 200.0 mg/kg/injection, schedule: Q01DX005 (ip), vehicle: distilled water + alcohol 103 % of control

CC1C(C(=O)NCC(c2ccccc2)c2ccccc2)CC2CCCCN21 (stereo not drawn)
inactive: [1] 96 % of control | [2] 92 % of control | [3] 91 % of control and 92 % of control

c1ccc2nc(-c3cc4ccccc4s3)ccc2c1
inactive: [4] 100 % of control and 104 % of control | [5] 90 % of control | [6] 100 % of control and 90 % of control | [7] 90 % of control | [8] 109 % of control and 95 % of control | [9] 90 % of control

O=C(O)c1cn2c3c(cc(N4CCN(CCO)CC4)cc3c1=O)SCC2
inactive: [3] 104 % of control | [10] 113 % of control | [11] 105 % of control

O=C(OCc1ccccc1)N(CCF)c1cn(Cc2ccccc2)c(=O)n(Cc2ccccc2)c1=O
inactive: dose: 50.0 mg/kg/injection, schedule: Q01DX005 (ip), vehicle: Klucel (hydroxypropylcellulose) (HPC) 93 % of control | dose: 100.0 mg/kg/injection, schedule: Q01DX005 (ip), vehicle: Klucel (hydroxypropylcellulose) (HPC) 96 % of control | dose: 200.0 mg/kg/injection, schedule: Q01DX005 (ip), vehicle: Klucel (hydroxypropylcellulose) (HPC) 87 % of control

O=C1c2ccccc2C(=O)c2c1cc1c(O)c(CN3CCCC3)ccc1c2O
inactive: dose: 50.0 mg/kg/injection, schedule: Q01DX005 (ip), vehicle: saline with Tween-80 92 % of control | dose: 100.0 mg/kg/injection, schedule: Q01DX005 (ip), vehicle: saline with Tween-80 89 % of control

COC(=O)/C=C(\NC1CC(OC2C[C@](O)(C(C)=O)Cc3c(O)c4c(c(O)c32)C(=O)c2c(OC)cccc2C4=O)OC(C)C1O)C(=O)OC (stereo partly drawn)
inactive: dose: 6.25 mg/kg/injection, schedule: Q04DX003 (ip), vehicle: saline with Tween-80 104 % of control | dose: 12.5 mg/kg/injection, schedule: Q04DX003 (ip), vehicle: saline with Tween-80 105 % of control and 115 % of control | dose: 25.0 mg/kg/injection, schedule: Q04DX003 (ip), vehicle: saline with Tween-80 121 % of control | [5] 121 % of control

O=C1CCCc2cc([N+](=O)[O-])ccc2N1
inactive: [12] 101 % of control | [13] 103 % of control | [14] 102 % of control

CCOC(=O)c1ccc(NC(=O)Nc2ncccc2C)cc1
inactive: dose: 0.78 mg/kg/injection, schedule: Q01DX009 (ip), vehicle: saline with Tween-80 98 % of control | dose: 1.56 mg/kg/injection, schedule: Q01DX009 (ip), vehicle: saline with Tween-80 103 % of control | dose: 6.25 mg/kg/injection, schedule: Q01DX009 (ip), vehicle: saline with Tween-80 92 % of control | [15] 90 % of control | [6] 89 % of control

COC(=O)c1nc(N)nc(C(=O)OC)c1C(=O)c1ccc2ccccc2c1
inactive: [16] 102 % of control | [17] 101 % of control

Cc1cccc(Nc2ncnc3c2c(=O)n(C)c(=O)n3C)c1
inactive: [1] 91 % of control | [2] 94 % of control | [3] 86 % of control

O=C1CC(C(=O)O)N(C(=O)Oc2ccccc2)C(C(=O)O)C1 (stereo not drawn)
inactive: dose: 4.38 mg/kg/injection, schedule: Q01DX005 (ip), vehicle: Klucel (hydroxypropylcellulose) (HPC) 98 % of control | dose: 8.75 mg/kg/injection, schedule: Q01DX005 (ip), vehicle: Klucel (hydroxypropylcellulose) (HPC) 105 % of control | dose: 17.5 mg/kg/injection, schedule: Q01DX005 (ip), vehicle: Klucel (hydroxypropylcellulose) (HPC) 101 % of control

Cc1ccc2ccccc2c1N(CC(=O)O)S(=O)(=O)c1ccccc1
inactive: [4] 100 % of control | [5] 100 % of control | [6] 110 % of control | [7] 100 % of control | [8] 120 % of control | [9] 109 % of control

COC(=O)c1cc2c(cc1C(=O)OC)C(=O)c1ccccc1C2=O
inactive: [3] 100 % of control | [10] 101 % of control | [11] 92 % of control

COc1cccc2c1S(=O)(=O)C(c1ccccc1)=CC2=O
inactive: [16] 105 % of control | [17] 105 % of control | dose: 240.0 mg/kg/injection, schedule: Q01DX005 (ip), vehicle: Klucel (hydroxypropylcellulose) (HPC) 120 % of control

[Cu].c1ccc2c3[n-]c(c2c1)/N=c1\[n-]/c(c2ccccc12)=N\c1[n-]c(c2ccccc12)/N=c1\[n-]/c(c2ccccc12)=N\3
inactive: dose: 50.0 mg/kg/injection, schedule: Q01DX009 (ip), vehicle: saline 104 % of control | [18] 93 % of control

O=C1CC=C2C3CC4N(CCC45c4ccccc4N1C25)C/C3=C\CBr (stereo not drawn)
inactive: dose: 1.87 mg/kg/injection, schedule: Q01DX005 (ip), vehicle: Klucel (hydroxypropylcellulose) (HPC) 105 % of control | dose: 3.75 mg/kg/injection, schedule: Q01DX005 (ip), vehicle: Klucel (hydroxypropylcellulose) (HPC) 103 % of control | dose: 7.5 mg/kg/injection, schedule: Q01DX005 (ip), vehicle: Klucel (hydroxypropylcellulose) (HPC) 101 % of control and 105 % of control

CC(C)=CCN1C(=O)c2ccccc2C1=O
inactive: [15] 109 % of control | [19] 109 % of control | [4] 104 % of control | [18] 94 % of control | dose: 100.0 mg/kg/injection, schedule: Q01DX009 (ip), vehicle: suspension in saline 98 % of control and 91 % of control | dose: 200.0 mg/kg/injection, schedule: Q01DX009 (ip), vehicle: saline 102 % of control | dose: 200.0 mg/kg/injection, schedule: Q01DX009 (ip), vehicle: suspension in saline 100 % of control and 103 % of control | dose: 400.0 mg/kg/injection, schedule: Q01DX009 (ip), vehicle: saline 120 % of control | dose: 400.0 mg/kg/injection, schedule: Q01DX009 (ip), vehicle: suspension in saline 110 % of control and 91 % of control

Cc1cccc(C(=O)N2C(=O)Cc3ccccc32)c1
inactive: [12] 99 % of control | [13] 94 % of control

Clc1ccc2c(nnn2OC2CCCC2)c1Cl
inactive: [19] 88 % of control | [4] 94 % of control | [6] 94 % of control

CCOC(=O)C(CCCCn1cnc2ncnc(Cl)c21)(NC(C)=O)C(=O)OCC
inactive: [12] 105 % of control | [13] 107 % of control | [14] 102 % of control

CC(C)CC(N)C(=O)NCCC(=O)O (stereo not drawn)
inactive: dose: 50.0 mg/kg/injection, schedule: Q01DX005 (ip), vehicle: saline 101 % of control | dose: 100.0 mg/kg/injection, schedule: Q01DX005 (ip), vehicle: saline 101 % of control | dose: 200.0 mg/kg/injection, schedule: Q01DX005 (ip), vehicle: saline 100 % of control

CCCC(Sc1ccccc1)c1cc(OC)ccc1NC(C)=O (stereo not drawn)
inactive: dose: 100.0 mg/kg/injection, schedule: Q01DX001 (ip), vehicle: saline with Tween-80 100 % of control | dose: 200.0 mg/kg/injection, schedule: Q01DX001 (ip), vehicle: saline with Tween-80 100 % of control | dose: 400.0 mg/kg/injection, schedule: Q01DX001 (ip), vehicle: saline with Tween-80 93 % of control

O=C1c2cccnc2C(=O)N1Cc1ccccc1
inactive: [5] 95 % of control | [7] 95 % of control | [9] 90 % of control
